Publication PMC4051503 (2014)

System: d(AAAATTTT)2 (DNA, duplex) AAAATTTT
Assay: X-ray crystallography (2.1 Å)
Conditions: 8 mM MnCl2; 40 mM sodium cacodylate pH 6.5, 0.5 mM spermine, 5% MPD, 15 °C; 0.25 mM duplex, 0.75 mM CD27

## c1cc(Nc2ccc(NC3=NCCN3)cc2)ccc1NC1=NCCN1
  binding: yes
